Measured values reported in patent EP2876156A1 (COMMISSARIAT A L'ENERGIE ATOMIQUE ET AUX ENERGIES …, priority 2013, dated 2015).
Where two headings read alike, the source gives them in different places.

Legend:
Format in all cases: biochemical
ENZ2 SEQ ID NO:2 = biological target: T1, ENZ2 SEQ ID NO:2 (Flavobacterium johnsoniae, UniProt A5FF23)
T1 construct: His6 (hexahistidine, inserted after the initial methionine) (N); made in house; host or cells: E. coli BL21(DE3) plysE
T1 sequence (A5FF23 1-370): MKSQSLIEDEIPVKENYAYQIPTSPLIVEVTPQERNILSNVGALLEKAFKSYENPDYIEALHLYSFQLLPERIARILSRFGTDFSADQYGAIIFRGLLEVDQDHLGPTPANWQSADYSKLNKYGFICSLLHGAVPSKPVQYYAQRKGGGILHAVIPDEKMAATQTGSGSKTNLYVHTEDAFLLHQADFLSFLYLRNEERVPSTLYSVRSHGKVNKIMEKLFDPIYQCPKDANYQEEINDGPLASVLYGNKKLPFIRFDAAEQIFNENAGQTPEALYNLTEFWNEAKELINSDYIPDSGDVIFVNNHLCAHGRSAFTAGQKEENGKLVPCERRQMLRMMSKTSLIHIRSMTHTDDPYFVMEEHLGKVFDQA
Experimental: (§1) Enzymatic reaction medium (0.2 µmole, leq.), borate buffer 0,2M pH 7.7 (80 µL) and Fmoc-Cl solution7.5 mM in acetone (100 µL, 0.75 µmole, 3.75 eq) were hand shaked in a closed 1.50 mL eppendorf for one minute. The aqueous layer was extracted with petroleum ether (3*1 mL) to eliminate excess of Fmoc-Cl. 70 µL of the aqueous phase were withdrawn, diluted with 70 µL of acetonitrile and injected into the HPLC. For substrates with two amine functions, 100 µL of Fmoc-Cl solution 15 mM were used.
(§2) Conditions for HPLC analysis: Atlantis® T3 (3 µm 4.5*150 mm) at 35°C with the gradient 50-86% eluent B (MeCN + 0.1% TFA) and eluent A (H2O + 0.1% TFA) in 20 min at 1 mL/min.
(§3) Enzymes (0.08 mg/mL) were screened against substrates (molar ratio α-ketoglutarate/substrate 15/10) in Hepes buffer 50 mM pH 7,5, with Mohr's salt at 1mM and without sodium ascorbate, at room temperature for three hours. The potential conversions of the substrates were determined by HPLC after Fmoc-Cl derivatization as section III here above.

ENZ3 SEQ ID NO:3 = biological target: T2, ENZ3 SEQ ID NO:3 (Chitinophaga pinensis, UniProt C7PLM6)
T2 construct: His6 (hexahistidine, inserted after the initial methionine) (N); made in house; host or cells: E. coli BL21(DE3) plysE
T2 sequence (C7PLM6 1-382): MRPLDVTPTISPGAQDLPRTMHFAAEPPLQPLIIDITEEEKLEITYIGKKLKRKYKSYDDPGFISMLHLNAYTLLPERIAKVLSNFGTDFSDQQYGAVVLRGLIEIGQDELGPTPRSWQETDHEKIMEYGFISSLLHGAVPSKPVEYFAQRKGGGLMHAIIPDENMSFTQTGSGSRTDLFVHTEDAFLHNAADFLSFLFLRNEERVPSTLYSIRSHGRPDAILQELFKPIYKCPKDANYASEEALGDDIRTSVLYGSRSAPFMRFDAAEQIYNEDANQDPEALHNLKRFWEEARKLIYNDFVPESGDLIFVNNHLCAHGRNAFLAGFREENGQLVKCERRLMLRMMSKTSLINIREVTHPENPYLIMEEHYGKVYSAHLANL
Experimental: as §1, §2, §3

ENZ4 SEQ ID NO:4 = biological target: T3, ENZ4 SEQ ID NO:4 (Catenulispora acidiphila, UniProt C7Q942); test: Substrate selectivity screening of hydroxylase (conversion by HPLC after Fmoc-Cl derivatization)
T3 construct: His6 (hexahistidine, inserted after the initial methionine) (N); made in house; host or cells: E. coli BL21(DE3) plysE
T3 sequence (C7Q942 1-343): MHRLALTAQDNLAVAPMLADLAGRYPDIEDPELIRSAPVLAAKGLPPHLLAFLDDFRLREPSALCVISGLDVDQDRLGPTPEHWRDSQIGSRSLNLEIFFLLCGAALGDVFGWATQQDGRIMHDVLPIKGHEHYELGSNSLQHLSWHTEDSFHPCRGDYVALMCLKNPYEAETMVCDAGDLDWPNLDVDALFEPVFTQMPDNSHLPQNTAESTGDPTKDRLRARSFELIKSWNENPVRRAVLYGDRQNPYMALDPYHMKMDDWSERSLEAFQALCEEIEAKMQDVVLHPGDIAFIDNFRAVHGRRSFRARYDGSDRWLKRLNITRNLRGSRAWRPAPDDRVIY
Experimental: as §1, §2, §3

ENZ1 SEQ ID N°1 = biological target: T4, ENZ1 SEQ ID N°1 (Catenulispora acidiphila, UniProt C7QJ42); test: as above
T4 construct: His6 (hexahistidine, inserted after the initial methionine) (N); made in house; host or cells: E. coli BL21(DE3) plysE
T4 sequence (C7QJ42 1-358): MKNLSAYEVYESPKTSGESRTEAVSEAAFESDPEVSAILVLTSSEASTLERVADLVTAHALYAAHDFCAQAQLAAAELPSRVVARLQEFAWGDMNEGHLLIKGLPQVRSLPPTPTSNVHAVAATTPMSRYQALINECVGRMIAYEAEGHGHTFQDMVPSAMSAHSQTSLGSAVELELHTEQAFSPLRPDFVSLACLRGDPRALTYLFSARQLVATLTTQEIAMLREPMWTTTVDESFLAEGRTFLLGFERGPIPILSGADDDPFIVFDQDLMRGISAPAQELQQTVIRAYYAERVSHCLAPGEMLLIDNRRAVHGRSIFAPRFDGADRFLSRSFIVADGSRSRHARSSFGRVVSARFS
Experimental: as §1, §2, §3

[1] = enzyme 0.08 mg/mL, molar ratio α-ketoglutarate/substrate 15/10, Hepes buffer 50 mM pH 7,5, Mohr's salt 1mM, without sodium ascorbate, room temperature, three hours

Compound | potential conversions of the substrates, ENZ2 SEQ ID NO:2 (ENZ2 SEQ ID NO:2; pH 7) | potential conversions of the substrates, ENZ3 SEQ ID NO:3 (ENZ3 SEQ ID NO:3; pH 7) | potential conversions of the substrates, ENZ4 SEQ ID NO:4 (ENZ4 SEQ ID NO:4; pH 7) | potential conversions of the substrates, ENZ1 SEQ ID N°1 (ENZ1 SEQ ID N°1; pH 7) | potential conversions of the substrates, ENZ2 SEQ ID NO:2 (ENZ2 SEQ ID NO:2; [1]) | potential conversions of the substrates, ENZ3 SEQ ID NO:3 (ENZ3 SEQ ID NO:3; [1]) | potential conversions of the substrates, ENZ4 SEQ ID NO:4 (ENZ4 SEQ ID NO:4; [1]) | potential conversions of the substrates, ENZ1 SEQ ID N°1 (ENZ1 SEQ ID N°1; [1])
NCCCCN [Putrescine] | negative | negative | negative | negative |  |  |  | 
NCCC[C@H](N)CC(=O)O [β-L-lysine] |  |  |  |  | negative | negative | negative | negative
COC(=O)[C@@H](N)CCCCN [L-lysine methyl ester] |  |  |  |  | negative | negative | negative | negative
NCCCC[C@H](NC(=O)[C@@H](N)CCCCN)C(=O)O [L-Lysil-L-lysine] |  |  |  |  | negative | negative | negative | negative
NCCCC[C@@H](N)C(=O)O [D-lysine] |  |  |  |  | negative | negative | negative | negative
CC(=O)N[C@@H](CCCN)C(=O)O [Nα-acetyl-L-ornithine] |  |  |  |  | negative | negative | negative | negative
NCCCCCC(=O)O [6-aminohexanoic acid] |  |  |  |  | negative | negative | negative | negative
N[C@H]1CCCCNC1=O [L-(-)-α-Amino-ε-caprolactam] |  |  |  |  | negative | negative | negative | negative
N=C(N)NCCC[C@@H](N)C(=O)O [D-arginine] |  |  |  |  | negative | negative | negative | negative
COC(=O)[C@@H](N)CCCN [L-ornithine methyl ester] |  |  |  |  | negative | negative | negative | negative
CCCCCC(N)C(=O)O (stereo not shown) [2-aminoheptanoic acid] |  |  |  |  | negative | negative | negative | negative
CC(=O)N[C@@H](CCCCN)C(=O)O [Nα-acetyl-L-lysine] |  |  |  |  | negative | negative | negative | negative
NCCC[C@H](O)[C@H](N)C(=O)O [(3S)- hydroxy-L-lysine] |  |  |  |  | positive | positive | negative | 
NC[C@H](O)CC[C@H](N)C(=O)O [(5R)- hydroxy-L-lysine] |  |  |  |  | positive | positive | negative | positive
NCCSC[C@H](N)C(=O)O [Thia-L-lysine] |  |  |  |  | positive | positive | negative | negative
C[N+](C)(C)CCCC[C@H](N)C(=O)O [Nε-Me3-L-lysine] |  |  |  |  | negative | negative | negative | negative
NC(CCCC(=O)O)C(=O)O (stereo not shown) [2-aminoadipic acid] |  |  |  |  | negative | negative | negative | negative
CC(=O)N[C@@H](CCCNC(=N)N)C(=O)O [Nα-acetyl-L-arginine] |  |  |  |  | negative | negative | negative | negative
NC(=O)NCCC[C@H](N)C(=O)O [L-citrulline] |  |  |  |  | negative | negative | negative | negative
NCCCCCN [Cadaverine] |  |  |  |  | negative | negative | negative | negative
